These results are taken from publication PMC2607020, “An Unusual Helix Turn Helix Motif in the Catalytic Core of HIV-1 Integrase Binds Viral DNA and LEDGF” (PLoS ONE, 2009).

One data set has as its target T1, LEDGF-IBD (wt IBD) (Homo sapiens, UniProt O75475).
T1 construct: The wt IBD is the fragment 347–471 of LEDGF (GST removed); GST (cleaved yes)
T1 sequence (O75475 347-471): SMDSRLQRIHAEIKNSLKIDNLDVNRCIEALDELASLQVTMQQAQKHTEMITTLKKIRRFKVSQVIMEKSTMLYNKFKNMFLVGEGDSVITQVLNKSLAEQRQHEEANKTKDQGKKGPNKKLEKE
Briefly: Fluorescence anisotropy titration of fluorescein-grafted HTHi by wt LEDGF-IBD. It counts as binding. To be noted: fluorescein-grafted HTHi 50 nM titrated by wt LEDGF-IBD; pH 6.0; 5°C. From the text: (§1) Like the whole protein, these contain no Trp.
Background: In fluorescence polarisation assays a small probe gives low polarisation when free and higher when bound to something large.

Data set [1] relates to Asp366Asn-IBD variant of LEDGF. To be noted: fluorescence anisotropy; fluorescein-labeled HTHi 50 nM; pH 6.0; 5°C.
Procedure: The wt IBD is the fragment 347–471 of LEDGF (GST removed) [33], [51], [52]. The mutant IBD is the Asp366Asn version of the former. Like the whole protein, these contain no Trp. […] The proteins were used in the “reaction buffer” containing 20 mM HEPES (pH 6.8), 10 mM MgCl2 and 10 mM DTT.
Intrinsic fluorescence quantum yield and fluorescence anisotropy studies were carried out with a Jobin-Yvon Fluoromax II instrument (HORIBA Jobin-Yvon, France) equipped with an ozone-free 150 W xenon lamp. The samples (800 µl) were placed at 5°C in thermally jacketed 1 cm×0.5 cm quartz cells. At least ten measurements for each titration point were recorded with an integration time of 5 sec.
The fluorescence anisotropy of the fluorescein-conjugated version of HTHi (50 nM) titrated by wt and mutated IBD in the “assay buffer” was used to evaluate the Kd of the LEDGF-HTHi complex.
The test system of data set [2] is wt IN. To be noted: intrinsic fluorescence of IN; similar conditions; ref [30]; cited from earlier work. How it is done:
In a previous study, based on the intrinsic fluorescence properties of IN conferred by its six Trp residues, we have shown the ability of peptide INH5 (Table 1a) to interact with IN with a concentration midpoint (C0.5) of 168 nM [30].

The next data set deals with IN. As to conditions: ref [30]; cited from earlier work. How it is done:
In a previous study, based on the intrinsic fluorescence properties of IN conferred by its six Trp residues, we have shown the ability of peptide INH5 (Table 1a) to interact with IN with a concentration midpoint (C0.5) of 168 nM [30]. […] There are examples in the literature showing that the so-called stabilizing helix of HTH motifs is involved in the protein dimerization. This is the case of topoisomerase II, in which the binding site to DNA is fashioned from the interaction of two HTH motifs. The implication of the α5 helix in the enzyme structure and activity has been highlighted in our previous report showing that peptide INH ...

In the next data set the test system is viral DNA. The data set can be described thus: Specific binding of peptide to viral DNA (general statement). More on the design: species or system HIV-1. As to conditions: Discussion.
Data set [3] has as its target LTR34fm. To be noted: ref [43], cited from earlier work. From the text: (§2) In a previous work we pointed out the importance of the conformational entropy in the binding of the α4 helix to the viral DNA. In order to reduce this effect, we had designed an analog of the α4 peptide that had its secondary structure stabilized by helicogenic mutations (Gly149Ala, Ile161Leu, Ile162Leu and Gly163Ala). The resulting peptide, K156, was a good mimic of the α4 helix in the protein context and was better organized for binding than peptide α4.

For data set [4], the system named is LTR34f5′. To be noted: LTR34f5′ vs LTR34fm; ref [43]; cited from earlier work.
Source text: as §2

The target in data set [5] is CRE (cAMP response element). To be noted: negative control sequence CRE; ref [43]; read-out: Kd (non-specific binding); cited from earlier work. The text has this:
The behavior of peptide HTHi is similar to that of peptide K156.

Data set [6] is described as follows: Circular dichroism of free peptide (secondary structure, oligomerisation). It counts as physicochemical. From the text: They were made according to the Fmoc procedure, as already reported for peptide α4, for its “stabilized” analogue i.e., peptide K156, and for the peptide INH5, derived from the α5 helix, [43]. Peptide α4 reproduces the α4 helix sequence of IN; peptide K156 is a variant of the α4 peptide resulting from the replacement of weakly helicogenic residues by more helicogenic ones in several biologically irrelevant positions; peptide INH5 contains both the α5 helix and the turn connecting the α5 helix to the α4 helix. The peptides HTHi and wt HTHi reproduce the sequences of the HTHi motifs in the IN-Phe185Lys variant and in wt IN respectively. A version of the HTHi peptide with a carboxyfluorescein at the N-terminus has also been prepared. Tyr or Trp aromatic residues, when absent in the native sequences, were purposely added in order to enable peptide quantification by UV absorption spectra. Peptide concentrations were determined using a molar absorption coefficient at 280 nm equal to 1 280 M^−1 cm^−1 for the tyrosine-containing peptides α4, INH5 and HTHi and 5600 M^−1 cm^−1 for the tryptophane-containing peptides K156 and […].
CD spectra were recorded on a Jobin-Yvon CD6 dichrograph (HORIBA Jobin-Yvon, France). Peptide concentrations varied from 5 to 25 µM in the “assay buffer”, containing 40 mM sodium phosphate, 0.5 mM EDTA, pH 6.0. The samples, incubated 10 min at the chosen temperature to allow the solutions to reach their equilibrium state, were placed in thermally jacketed cells with a 1 mm path length. The spectra, recorded in 1 nm steps, were averaged over ten scans and corrected for the base line, then presented as differential molar absorptivities per residue, Δε (M^−1 cm^−1), for peptides, and as difference spectra (complex minus DNA), for peptide-DNA complexes. For the HTHi-LTR interaction, aliquots of peptide were added to LTR34 (10 µM) and the control spectrum of unliganded LTR was subtracted from that of the complex. Recall that in a simple random coil – α helix equilibrium, the α-helix content of peptides could be approximated by the relation: Pα = −[Δε222×10] (Pα: percentage of α helix; Δε222: differential molar absorptivity per residue at 222 nm).
(In general: CD spectra are sensitive to the conformation of chiral molecules.)

Data set [7] concerns wt IN. Briefly: Quenching of the intrinsic fluorescence of wt IN by peptide. To be noted: wt IN 100 nM monomer; Trp fluorescence quenching, excitation 295 nm; 20 mM HEPES pH 6.8, 10 mM MgCl2, 10 mM DTT; 5°C. It is filed as binding, HIV-1. How it is done: as §1
The intrinsic fluorescence of wt IN was measured at 100 nM monomer concentration, in the “reaction buffer” (see above). The Trp residues were excited at 295 nm and emission was recorded between 305 and 450 nm, with 2 nm and 5 nm excitation and emission slit widths, respectively. A maximal emission was obtained at 337 nm. Quenching of the fluorescence of IN following the addition of HTHi or of peptide α4 (devoid of Trp) was expressed as 1-F/F0, where F0 is the fluorescence of the enzyme in the absence of peptide.

Data set [8] deals with LTR34f5′. The data set can be described thus: Fluorescence anisotropy titration of LTR34f5′ by peptide. It counts as binding, HIV-1. From the text: (§3) The oligonucleotides (Table 1b) were purchased from Cybergene ESGS (France) and Eurogentec (Belgium). The choice of monomolecular hairpin-forming oligonucleotides, rather than bimolecular duplex-forming ones, was motivated by the need for stability under the low concentrations inherent to the fluorescence anisotropy experiments. The fluorescein reporter group is grafted either to the central T nucleotide (LTR34fm) or to the 5′ extremity (LTR34f5′ and CRE). The CRE (cAMP responsive element) sequence was used as negative control. The version of LTR34 without fluorescein was used in CD studies.
(§4) Fluorescence anisotropy titration, [75]. Fluorescein-labeled oligonucleotides were used at 20 nM in the “assay buffer” (see Table 1b and above). With fluorescein as fluorophore, excitation and emission were at 488 nm and 516 nm, with 4 nm and 5 nm slits, respectively. Peptides were added to DNA as successive aliquots. For each anisotropy measurement, the parallel [drawing 1] and the perpendicular [drawing 2] intensities of the background solution (i.e., buffer and protein contributions) were subtracted from those of the sample.

The next data set has as its system LTR34. Briefly: Circular dichroism of peptide-DNA complex (difference spectrum). It counts as binding, HIV-1. To be noted: HTHi 6 µM + LTR34 10 µM, 40 mM sodium phosphate, 0.5 mM EDTA, pH 6.0.
Source text: as §3
CD spectra were recorded on a Jobin-Yvon CD6 dichrograph (HORIBA Jobin-Yvon, France). Peptide concentrations varied from 5 to 25 µM in the “assay buffer”, containing 40 mM sodium phosphate, 0.5 mM EDTA, pH 6.0. The samples, incubated 10 min at the chosen temperature to allow the solutions to reach their equilibrium state, were placed in thermally jacketed cells with a 1 mm path length. The spectra, recorded in 1 nm steps, were averaged over ten scans and corrected for the base line, then presented as differential molar absorptivities per residue, Δε (M^−1 cm^−1), for peptides, and as difference spectra (complex minus DNA), for peptide-DNA complexes. […]

The target of data set [9] is CRE (cAMP response element). Briefly: Fluorescence anisotropy titration of CRE (negative control sequence) by peptide. To be noted: CRE 20 nM, curve fitting, ±10% uncertainty, 40 mM sodium phosphate, 0.5 mM EDTA, pH 6.0, 5°C, read-out: Kd (non-specific binding).
Source text: as §3, §4

The target in data set [10] is LTR34fm. The data set can be described thus: Fluorescence anisotropy titration of LTR34fm by peptide. To be noted: LTR34fm 20 nM, curve fitting, ±10% uncertainty, 40 mM sodium phosphate, 0.5 mM EDTA, pH 6.0, 5°C. It counts as binding, HIV-1.
Source text: as §3, §4

Entries after “also recorded” stand apart in the source; their conditions may differ. Where two headings read alike, the source gives them in different places.

On LEDGF-IBD (wt IBD), `CC[C@H](C)[C@H](NC(=O)[C@H](Cc1ccccc1)NC(=O)[C@@H](NC(=O)[C@H](C)NC(=O)[C@H](CCSC)NC(=O)[C@H](CCC(N)=O)NC(=O)[C@@H](NC(=O)[C@H](C)NC(=O)[C@@H](NC(=O)[C@H](CCCCN)NC(=O)[C@H](CC(C)C)NC(=O)[C@H](Cc1c[nH]cn1)NC(=O)[C@H](CCC(=O)O)NC(=O)[C@H](C)NC(=O)[C@H](CCC(N)=O)NC(=O)[C@H](CC(=O)O)NC(=O)[C@H](CCCNC(=N)N)NC(=O)[C@@H](NC(=O)[C@H](CCC(N)=O)NC(=O)CNC(=O)[C@@H](NC(=O)[C@@H](NC(=O)[C@H](CCCCN)NC(=O)[C@H](CCCCN)NC(=O)[C@H](CC(C)C)NC(=O)[C@H](CCC(=O)O)NC(=O)[C@H](CCCCN)NC(=O)[C@H](CC(N)=O)NC(=O)[C@H](CCSC)NC(=O)[C@H](CO)NC(=O)[C@H](CCC(=O)O)NC(=O)[C@@H](NC(=O)[C@@H](NC(=O)CNC(=O)[C@H](Cc1ccc(O)cc1)NC(=O)c1ccc2c(c1)C(=O)OC21c2ccc(O)cc2Oc2cc(O)ccc21)C(C)C)[C@@H](C)CC)[C@@H](C)CC)[C@@H](C)CC)C(C)C)[C@@H](C)O)C(C)C)C(C)C)C(=O)N[C@@H](Cc1c[nH]cn1)C(=O)N[C@@H](CC(N)=O)C(=O)N[C@@H](CCCCN)C(=O)N[C@@H](CCCCN)C(=O)N[C@@H](C)C(=O)O` [fluorescein-grafted HTHi peptide] returned a Hill number of 11±3. The “binding to Asp366Asn-IBD vs wt IBD” value in data set [1] is given as “only the wt IBD binds HTHi”.

Consider “DQ 168 AEHLKTAVQMAVFIHNY 185KA [INH5, peptide containing both the α5 helix and the turn connecting the α5 helix to the α4 helix]”, for which the “concentration midpoint (C0.5)” value in the data set on wt IN [2] was 168 nM. In the data set on IN, the “effect on IN” value was “caused the dissociation of the tetramers and dimers of IN; also recorded: inhibits IN by dissociating the IN dimers and tetramers”.

Turning to SQA 149 KLEEMNK156ELKKLLAQVRAQ168 W, the “affinity for viral DNA compared with HTHi” value with viral DNA (K156 vs HTHi) is “manifests a greater affinity for viral DNA than peptide HTHi”. In addition, the Kd on LTR34fm [3] (attachment site on the six outermost bases of viral DNA, read-out: Kd1 (high affinity site)) is 2.1 nM; on LTR34fm [3] (non-specific binding, read-out: Kd2 (low affinity site)), 54000 nM; in data set [5], 16000 nM. Further, the “effect of fluorescein at the 5′ extremity on binding modes” value in the data set with LTR34f5′ [4] is “suppressed the high affinity binding mode of K156 but preserved the low affinity mode”.

As to “SQG149VIESMNK156ELKKIIGQVRDQ 168 AEHLKTAVQMAVWIHNF185K [wt HTHi]”, the “structure compared with that of the mutant bi-helix” value in data set [6] (experiments not shown, method not stated) is “the structure of the wt bi-helix was similar to that of the mutant”.

For SQG149VVESMNK156ELKKIIGQVRY [α4], in the data set on viral DNA (isolated peptide, no value), the “DNA binding (in words)” value was “very poor DNA binder; also recorded: completely unable to specifically bind the viral DNA”. The “midpoint of titration curve (C0.5)” value in the data set on wt IN [7] stood at 53 ± 5 nM. The “conformation of isolated peptide” value in [6] (stated in Discussion) is on record as “mostly displays random conformation”.

Turning to “YG149VIESMNK156ELKKIIGQVRDQ 168 AEHLKTAVQMAVFIHNK 185KA [HTHi]”, the Kd on LTR34f5′ [8] (LTR34f5′ 20 nM, monophasic, fluorescence anisotropy, curve fitting, ±10% uncertainty, 40 mM sodium phosphate, 0.5 mM EDTA, pH 6.0, 5°C) was found to be 2900 nM; in data set [9] it was 6600 nM; on LTR34fm [10] (read-out: Kd1 (high affinity site)), 50 nM; on LTR34fm [10] (read-out: Kd2 (low affinity, non-specific site)), 1900 nM. Moreover, the “effect of fluorescein at the 5′ extremity on high affinity binding” value in the data set with LTR34f5′ [8] (LTR34f5′ vs LTR34fm) is “The high affinity is abolished”. The “change of helical content on binding LTR34” value in the data set with LTR34 is recorded as “practically doubles its helical content when binding to LTR34”. For the same compound, in the data set on wt IN [7], the “midpoint of titration curve (C0.5)” value is 104 ± 8 nM. In addition, the “helix content compared with component peptides α4 and INH5” value in data set [6] (CD, spectra of α4 from ref [43] and of INH5 from ref [30]) is “helix content of HTHi is greater than that of peptides α4 [43] and INH5 [30]”. For the same compound, the “propensity to form oligomers in solution” value in data set [6] (high peptide concentration, CD, pH 6.0) was “propensity of HTHi to form oligomers in solution at high concentration”. In addition, the helical content in data set [6] (peptide 6 µM, 40 mM sodium phosphate, 0.5 mM EDTA, pH 6.0, 1 mm path length) was 10–15%. The “helical content (in words)” value in data set [6] (peptide 25 µM, 40 mM sodium phosphate, 0.5 mM EDTA, pH 6.0) is reported as “weak amount of helix”.
